For one series, the system named is blood flow. As to conditions: animal studies, cited from earlier work.
For series [1] the following is noted: phase 1 studies, cited from earlier work.
The test system of another series is K562 cell line. Briefly: MTT assay: cytotoxicity against the K562 cell line. It is filed as cell-based. As to conditions: Homo sapiens, K562 cells, 72 h, growth inhibition. Summed up:
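Fifteen thousand K562 cells per well were exposed in triplicate to a compound dilution series for 72 h at 37 °C, 5% CO2. Viability was measured by MTT absorbance at 550 nm relative to untreated control, and IC50 was obtained by nonlinear regression.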
On the technique in general: Tetrazolium assays rely on reduction of a dye to a coloured formazan, in cell work by metabolically active cells.

For the next series, the target named is T1, purified tubulin (Sus scrofa, UniProt P02550+P02554).
T1 construct: purchased Cytoskeleton #BK006P
Briefly: Tubulin polymerisation assay (CytoDYNAMIX Screen kit, absorbance at 340 nm). It is filed as biochemical. As to conditions: 5 μM compound, 4 mg/ml tubulin; read-out: % Inhibition of tubulin polymerization at 5 μM. As for the experimental part:
The polymerization of purified tubulin was monitored spectrophotometrically by the change in absorbance at 340 nm using the CytoDYNAMIX Screen kit (#BK006P, Cytoskeleton) according to the instructions of the manufacturer. […] The absorbance was measured at 1 minute intervals for 60 minutes. The test compound was added to a 4 mg/ml tubulin solution containing 10% glycerol and 1 mM GTP in Buffer 1 (Buffer 1: 80 mM PIPES; 2 mM MgCl2; 0.5 mM EGTA, pH 6.9). Increased absorbance indicates increase in microtubule formation from tubulin heterodimers.

Series [2] has as its target T2, colchicine site on tubulin (biotinylated porcine tubulin) (Sus scrofa, UniProt P02550+P02554).
T2 construct: biotin (chemical label)
Briefly: Tubulin displacement assay (3H-colchicine radioligand binding, SPA). The procedure:
The assay was developped following the method published by Tahir et al. (2001) and others using biotinylated porcine tubulin captured to streptavidin coated yttrium silicate scintillation proximity assay (YSi SPA) beads in a PIPES/EGTA/MgCl2/GTP buffer. […] IC50s were determined using GraphPad Prism Version 5.01 and the sigmoidal dose response with variable slope curve fit.

The test system of series [3] is Endothelial cells (HUVEC). Briefly: Neovessels formation inhibition (capillary tube formation on Matrigel). It counts as cell-based. As to conditions: Homo sapiens, HUVEC. The method, boiled down:
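Twenty thousand HUVEC were seeded on Matrigel and left overnight with or without compound to form capillary tubes. After calcein AM staining, tube formation was judged by inverted fluorescence microscopy, with 3-amino-deoxycombretastatin A-4 as reference.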

The subject of a further series is HUVEC. Briefly: Pre-established vessels disruption (capillary tubes on Matrigel). It is filed as cell-based. The note with it: Homo sapiens, HUVEC tubes formed 5 hours, then compounds overnight. As for the experimental part:
To explore the effect of the compounds on pre-established vasculature, twenty thousand cells (HUVEC) were seeded and incubated over Matrigel for 5 hours to allow the capillary tubes to form. Then, compounds were added and incubated overnight. The disappearance of existing vasculature was monitored with fluorescent microscopy.

Molecules are shown by their SMILES. Like-named read-outs stand apart in the source and are kept apart here.

For orientation: IC50 means the point on the concentration scale where inhibition reaches its midpoint. By inhibition is commonly meant the drop in the measured response relative to a control, in per cent.

T1 sequence (P02554 whole entry): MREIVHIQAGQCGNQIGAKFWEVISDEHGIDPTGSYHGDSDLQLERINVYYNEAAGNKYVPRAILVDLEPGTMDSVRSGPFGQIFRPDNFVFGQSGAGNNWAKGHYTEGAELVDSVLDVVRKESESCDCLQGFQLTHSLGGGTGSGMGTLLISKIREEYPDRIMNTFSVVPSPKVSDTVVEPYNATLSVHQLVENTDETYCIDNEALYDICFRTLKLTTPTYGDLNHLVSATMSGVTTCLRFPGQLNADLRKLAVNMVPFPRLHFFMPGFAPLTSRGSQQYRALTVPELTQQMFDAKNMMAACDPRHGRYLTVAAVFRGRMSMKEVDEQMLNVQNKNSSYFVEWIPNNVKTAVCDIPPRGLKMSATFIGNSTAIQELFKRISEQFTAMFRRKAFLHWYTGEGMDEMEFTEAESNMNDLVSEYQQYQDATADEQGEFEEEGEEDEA
T1 sequence (P02550 whole entry): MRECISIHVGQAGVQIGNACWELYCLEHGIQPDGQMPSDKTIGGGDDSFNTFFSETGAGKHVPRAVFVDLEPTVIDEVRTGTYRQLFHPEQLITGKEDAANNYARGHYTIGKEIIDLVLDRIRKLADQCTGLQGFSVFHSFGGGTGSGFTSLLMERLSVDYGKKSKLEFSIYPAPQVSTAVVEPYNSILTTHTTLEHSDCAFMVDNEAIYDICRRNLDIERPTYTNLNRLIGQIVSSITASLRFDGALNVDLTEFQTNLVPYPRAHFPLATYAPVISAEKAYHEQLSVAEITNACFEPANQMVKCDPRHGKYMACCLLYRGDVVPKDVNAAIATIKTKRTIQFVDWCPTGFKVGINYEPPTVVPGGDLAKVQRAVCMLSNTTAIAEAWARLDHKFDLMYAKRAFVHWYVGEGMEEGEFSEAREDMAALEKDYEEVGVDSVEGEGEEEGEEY
T2 sequence (P02554 whole entry): as the sequence (P02554 whole entry) above
T2 sequence (P02550 whole entry): as the sequence (P02550 whole entry) above

For the compound `COc1ccc(/C=C\c2cc(OC)c(OC)c(OC)c2)cc1OP(=O)([O-])[O-].[Na+].[Na+]` [CA4P, CA-4 disodium phosphate], the “blood flow decrease in heart, kidney, and intestine” value with blood flow (heart, kidney, intestine) was “no significant decrease”. In addition, the “blood flow reduction in spleen, skeletal muscle, and brain” value in the series with blood flow (spleen, skeletal muscle, brain) is recorded as “less than 7 fold”. Besides, the “blood flow reduction in the tumor” value in the series on blood flow (tumor) is given as 100 fold. Besides, in series [1] (administered intravenously), the dose-limiting toxicities entry was “dyspnea, neurological disturbances (syncope, motor neuropathy, ataxia), and cardiac and intestinal ischemia”. In addition, in series [1], the “Responses seen in” value is “thyroid cancer, sarcoma, and adrenocortical carcinoma”.

In the case of `CCOc1ccc2c(C(=O)c3cc(OC)c(OC)c(OC)c3)cncc2c1OP(=O)(O)O` [Compound 98, 7-ethoxy-4-(3,4,5-trimethoxybenzoyl)isoquinolin-8-yl disodium phosphate], the 50% inhibitory concentration (IC50) stood at 7.57 nM in the series on K562 cell line; 121 nM in series [2]; 3.68 nM in series [3] (read-out: Neovessels Formation Inhibition Number of Branch Junctions IC50 (nM)); 6.5 nM in series [3] (read-out: Neovessels Formation Inhibition Total Tubule Length IC50 (nM)); 9.22 nM with HUVEC (read-out: Pre-established Vessels Disruption Number of Branch Junctions IC50); 15.1 nM in the series on HUVEC (read-out: Pre-established Vessels Disruption Total Tubule Length IC50). Also, at purified tubulin, the inhibition at 5 µM worked out at 49%.

Source of the values: patent US20130131018A1, “SUBSTITUTED ISOQUINOLINES AND THEIR USE AS TUBULIN POLYMERIZATION INHIBITORS” (Exonhit S.A., priority 2010, published 2013).
